{
  "source": "patent US20110190253A1",
  "about": "“METHOD FOR TREATING TUBERCULOSIS” (priority 2008, published 2011)",
  "key": {"M. tuberculosis H37Rv": {"system": "M. tuberculosis H37Rv", "experiment": "minimum inhibitory concentration (MIC) in 7H9 medium at 37° C.", "type": "cell-based", "details": "for effect of addition of clavulanate on the MIC value: absence vs presence of 2.5 μg ml^−1 clavulanate, data not shown"}, "[1]": {"system": "M. tuberculosis Erdman strain", "experiment": "broth microdilution in 7H9 broth, 96 well plates, M. tuberculosis growth after 1 week of incubation", "type": "cell-based", "details": "one week of incubation"}, "[2]": {"system": "M. tuberculosis in viable but nonreplicative (NRP) state", "experiment": "Wayne model, nonreplicative (NRP2) cultures, viability by intracellular ATP and CFUs", "type": "cell-based", "details": "for reduction of viability (intracellular ATP, CFUs): combination with clavulanate, anaerobic chamber, 1 week and 2 weeks, data not shown; for kill over a 2-week exposure time: meropenem in combination with clavulanate, metronidazole as control compound"}, "[3]": {"system": "M. tuberculosis Erdman strain", "experiment": "MIC against Erdman strain", "type": "cell-based", "details": "Mycobacterium tuberculosis, read-out: MIC value"}, "BlaC": {"target": "BlaC (Mycobacterium tuberculosis, UniProt P9WKD3)", "sequence (P9WKD3 35-307)": "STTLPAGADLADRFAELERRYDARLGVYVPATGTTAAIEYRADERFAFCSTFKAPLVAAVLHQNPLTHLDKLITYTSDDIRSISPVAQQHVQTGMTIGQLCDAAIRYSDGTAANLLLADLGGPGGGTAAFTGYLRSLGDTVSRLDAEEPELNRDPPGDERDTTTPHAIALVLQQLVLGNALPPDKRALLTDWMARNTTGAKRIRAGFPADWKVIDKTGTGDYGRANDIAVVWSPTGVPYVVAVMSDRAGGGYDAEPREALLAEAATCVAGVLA", "experiment": "rate of hydrolysis by BlaC", "type": "biochemical, M. tuberculosis"}, "[4]": {"details": "at any concentration of clavulanate (0.0.5, 1 and 2 μg/ml)"}},
  "data": [
    {"smiles": "CC1(C)S[C@@H]2[C@H](NC(=O)[C@H](N)c3ccc(O)cc3)C(=O)N2[C@H]1C(=O)O", "note": "[amoxicillin]", "values": [
      {"measurement": "effect of addition of clavulanate on the MIC value", "setting": "M. tuberculosis H37Rv", "value": "only a modest effect"},
      {"measurement": "inhibition of M. tuberculosis growth", "setting": "[1]; 4 μg/ml of amoxicillin and 1-2 μg/ml clavulanate", "value": "Modest inhibition"},
      {"measurement": "reduction of viability (intracellular ATP, CFUs)", "setting": "[2]", "value": "effective in reducing viability"}
    ]},
    {"smiles": "CC1(C)S[C@@H]2[C@H](NC(=O)[C@H](N)c3ccccc3)C(=O)N2[C@H]1C(=O)O", "note": "[ampicillin]", "values": [
      {"measurement": "effect of addition of clavulanate on the MIC value", "setting": "M. tuberculosis H37Rv", "value": "only a modest effect"}
    ]},
    {"smiles": "CC(C)(O/N=C(\\C(=O)N[C@@H]1C(=O)N2C(C(=O)[O-])=C(C[n+]3ccccc3)CS[C@H]12)c1csc(N)n1)C(=O)O", "note": "[ceftazidime]", "values": [
      {"measurement": "inhibition of M. tuberculosis growth", "setting": "[1]; [4]", "value": "no inhibition"}
    ]},
    {"smiles": "CO/N=C(\\C(=O)N[C@@H]1C(=O)N2C(C(=O)O)=C(COC(N)=O)CS[C@H]12)c1ccco1", "note": "[cefuroxime]", "values": [
      {"measurement": "inhibition of M. tuberculosis growth", "setting": "[1]; 2 μg/ml cefuroxime and 2 μg/ml clavulanate", "value": "Modest inhibition"},
      {"measurement": "reduction of viability (intracellular ATP, CFUs)", "setting": "[2]", "value": "effective in reducing viability"}
    ]},
    {"smiles": "C[C@@H](O)[C@H]1C(=O)N2C(C(=O)O)=C(S[C@@H]3CN[C@H](C(=O)N(C)C)C3)[C@H](C)[C@H]12", "note": "[meropenem]", "values": [
      {"measurement": "MIC", "setting": "[3]", "value": "≤ 1", "unit": "µg/mL"},
      {"measurement": "MIC value in the presence of clavulanate", "setting": "M. tuberculosis H37Rv; 7H9 medium, 37° C., 2.5 μg ml^−1 clavulanate", "value": 0.32, "unit": "µg/mL"},
      {"measurement": "MIC", "setting": "M. tuberculosis H37Rv; Mycobacterium tuberculosis, with clavulanate, as restated", "value": "≤ 1", "unit": "µg/mL"},
      {"measurement": "M. tuberculosis growth", "setting": "[1]; 1 μg/ml meropenem in combination with 1 μg/ml clavulanate", "value": "No M. tuberculosis growth"},
      {"measurement": "reduction of viability (intracellular ATP, CFUs)", "setting": "[2]", "value": "more pronounced"},
      {"measurement": "kill over a 2-week exposure time", "setting": "[2]", "value": "more than a log kill"},
      {"measurement": "rate of hydrolysis by BlaC", "setting": "BlaC", "value": "low"}
    ]},
    {"smiles": "Cc1ncc([N+](=O)[O-])n1CCO", "note": "[metronidazole]", "values": [
      {"measurement": "kill over a 2-week exposure time", "setting": "[2]", "value": "comparable"}
    ]},
    {"smiles": "CCN1CCN(C(=O)N[C@@H](C(=O)N[C@@H]2C(=O)N3[C@@H]2SC(C)(C)[C@@H]3C(=O)O)c2ccccc2)C(=O)C1=O", "note": "[piperacillin]", "values": [
      {"measurement": "inhibition of M. tuberculosis growth", "setting": "[1]; [4]", "value": "no inhibition"}
    ]}
  ]
}
